Source: the supplement of paper PMC10307832

What was measured:
Experiment in all cases: relative viability (nuclei count vs DMSO), 5 days (fraction); higher = more cells survive
Cediranib + Navitoclax = compound: COc1cc2c(Oc3ccc4[nH]c(C)cc4c3F)ncnc2cc1OCCCN1CCCC1 [Cediranib] + CC1(C)CCC(c2ccc(Cl)cc2)=C(CN2CCN(c3ccc(C(=O)NS(=O)(=O)c4ccc(N[C@H](CCN5CCOCC5)CSc5ccccc5)c(S(=O)(=O)C(F)(F)F)c4)cc3)CC2)C1 [Navitoclax] (partner 0.5 µM)
Summary of the method: (§1)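 Lung cancer cell lines were seeded in 1536-well plates and dosed by pin tool the next day, with either a single drug or a fixed anchor-drug dose combined with five library-drug doses (not always all listed) spaced in √10 steps. Five days later, one step fixed the cells and stained their nuclei (final 0.05% Triton X-100, 1% formaldehyde, 1 ug/ml Hoechst), and nuclei were counted on 4× images. Relative viability is the nuclei count in treated wells divided by the count in vehicle wells, and each value is the median of duplicate plates.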

Cediranib + Alpelisib = compound: COc1cc2c(Oc3ccc4[nH]c(C)cc4c3F)ncnc2cc1OCCCN1CCCC1 [Cediranib] + Cc1nc(NC(=O)N2CCC[C@H]2C(N)=O)sc1-c1ccnc(C(C)(C)C(F)(F)F)c1 [Alpelisib] (partner 2 µM)
Summary of the method: as §1

Decitabine + AZD7762 = compound: Nc1ncn([C@H]2C[C@H](O)[C@@H](CO)O2)c(=O)n1 [Decitabine] + NC(=O)Nc1cc(-c2cccc(F)c2)sc1C(=O)N[C@H]1CCCNC1 [AZD7762] (partner 0.2 µM)
Summary of the method: as §1

Decitabine + Olaparib = compound: Nc1ncn([C@H]2C[C@H](O)[C@@H](CO)O2)c(=O)n1 [Decitabine] + O=C(c1cc(Cc2n[nH]c(=O)c3ccccc23)ccc1F)N1CCN(C(=O)C2CC2)CC1 [Olaparib] (partner 8 µM)
Summary of the method: as §1

Cell Line | relative viability (Cediranib + Navitoclax; first compound 0.04 µM) | relative viability (Cediranib + Navitoclax; first compound 0.1265 µM) | relative viability (Cediranib + Navitoclax; first compound 0.4 µM) | relative viability (Cediranib + Navitoclax; first compound 1.265 µM) | relative viability (Cediranib + Navitoclax; first compound 4 µM) | relative viability (Cediranib + Alpelisib; first compound 0.04 µM) | relative viability (Cediranib + Alpelisib; first compound 0.1265 µM) | relative viability (Cediranib + Alpelisib; first compound 0.4 µM) | relative viability (Cediranib + Alpelisib; first compound 1.265 µM) | relative viability (Cediranib + Alpelisib; first compound 4 µM) | relative viability (Decitabine + AZD7762; first compound 0.04 µM) | relative viability (Decitabine + AZD7762; first compound 0.1265 µM) | relative viability (Decitabine + AZD7762; first compound 0.4 µM) | relative viability (Decitabine + AZD7762; first compound 1.265 µM) | relative viability (Decitabine + AZD7762; first compound 4 µM) | relative viability (Decitabine + Olaparib; first compound 0.04 µM) | relative viability (Decitabine + Olaparib; first compound 0.1265 µM) | relative viability (Decitabine + Olaparib; first compound 0.4 µM) | relative viability (Decitabine + Olaparib; first compound 1.265 µM) | relative viability (Decitabine + Olaparib; first compound 4 µM)
NCI-H1703 | 1.11 | 0.916 | 0.287 | 0.237 | 0.238 | 0.264 | 0.337 | 0.218 | 0.205 | 0.169 | 0.111 | 0.0883 | 0.132 | 0.152 | 0.102 | 0.21 | 0.21 | 0.287 | 0.145 | 0.166
HCC-827 | 1.02 | – | 1.02 | 1.04 | 1.1 | 1.06 | – | 0.957 | 0.985 | 0.926 | 0.113 | 0.169 | 0.188 | 0.173 | 0.193 | 0.146 | 0.279 | 0.218 | 0.182 | 0.205
NCI-H1993 | 1.05 | 0.935 | 0.981 | 0.733 | 1.09 | 0.734 | 0.709 | 0.631 | 0.677 | 0.791 | 0.654 | 0.796 | 0.644 | 0.641 | 0.703 | 0.647 | 0.614 | 0.625 | 0.44 | 0.473
NCI-H647 | 1.11 | – | 1.16 | 1.12 | 1.14 | 1.35 | 1.3 | 1.02 | 0.876 | 1.21 | 0.345 | 0.438 | 0.247 | 0.139 | 0.151 | 0.154 | 0.131 | 0.103 | 0.0693 | 0.0747
NCI-H460 | 1.12 | 1.1 | 0.938 | 0.993 | 1.33 | 0.66 | 0.525 | 0.418 | 0.526 | 0.336 | 0.576 | 0.593 | 0.361 | 0.134 | 0.105 | 0.176 | 0.118 | 0.0739 | 0.0563 | 0.0657
EMC-BAC-2 | 1.3 | 1.16 | 1.12 | 1.17 | 1.06 | 0.788 | 0.796 | 0.707 | 0.728 | 0.801 | – | 1.15 | 0.908 | 0.911 | 0.846 | – | 0.405 | 0.371 | 0.298 | 0.294
NCI-H23 | 0.974 | – | 0.615 | 0.702 | 0.794 | 0.625 | – | 0.667 | 0.7 | 0.734 | 0.196 | 0.271 | 0.154 | 0.131 | 0.162 | 0.229 | 0.2 | 0.166 | 0.134 | 0.154
NCI-H1793 | 0.59 | 0.468 | 0.461 | – | 0.46 | 0.683 | 0.694 | 0.64 | – | 0.788 | 0.37 | 0.591 | 0.258 | 0.154 | 0.169 | 0.455 | 0.307 | 0.281 | 0.19 | 0.212
A-427 | 0.903 | – | 0.909 | 0.875 | 0.94 | 1.04 | – | 1.08 | 1.01 | 1.08 | 0.464 | 0.512 | 0.425 | 0.278 | 0.285 | 0.474 | 0.443 | 0.281 | 0.248 | 0.217
NCI-H322M | 1.22 | 1.21 | 1.08 | 1.21 | 1.14 | 0.687 | 0.84 | 0.655 | 0.723 | 0.685 | 0.546 | 0.619 | 0.478 | 0.445 | 0.501 | 0.641 | 0.684 | 0.646 | 0.47 | 0.383
NCI-H2085 | 1.19 | 1.04 | 1.13 | 1.09 | 1.26 | 1.02 | 0.94 | 0.974 | 1.09 | 0.953 | 0.757 | 0.852 | 0.655 | 0.527 | 0.615 | 0.46 | 0.42 | 0.425 | 0.324 | 0.344
NCI-H2087 | 1.07 | 0.914 | 1.01 | 0.984 | 1.07 | 1.05 | 1.25 | 1.18 | 1.11 | 1.14 | 0.853 | 0.719 | 0.58 | 0.493 | 0.499 | 0.187 | 0.236 | 0.217 | 0.145 | 0.14
HCC-366 | 1.07 | 0.983 | 1.11 | 1.07 | 1.07 | 0.402 | 0.316 | 0.363 | 0.401 | 0.388 | 0.208 | 0.276 | 0.114 | 0.0535 | 0.0424 | 0.11 | 0.0915 | 0.066 | 0.0346 | 0.0247
NCI-H2126 | 0.8 | 0.934 | 0.781 | 0.811 | 0.914 | 0.776 | 0.796 | 0.732 | 0.662 | 0.781 | 0.874 | 0.938 | 0.577 | 0.713 | 0.591 | 0.63 | 0.546 | 0.459 | 0.42 | 0.85
HCC-78 | 0.934 | 0.824 | 0.764 | 0.762 | 0.758 | 0.361 | 0.379 | 0.323 | 0.386 | 0.287 | 0.549 | 0.605 | 0.565 | 0.474 | 0.466 | 0.458 | 0.433 | 0.382 | 0.272 | 0.241
LCLC-97TM1 | 0.316 | – | 0.448 | 0.544 | 0.527 | 0.235 | – | 0.25 | 0.237 | 0.199 | 0.0916 | 0.108 | 0.0741 | 0.102 | 0.0907 | 0.0932 | 0.124 | 0.0895 | 0.0603 | 0.335
NCI-H838 | 1.17 | 1.07 | 1.17 | 1.1 | 1.41 | 1.06 | 0.997 | 0.97 | 0.962 | 1.13 | 0.74 | 0.753 | 0.815 | 0.68 | 0.659 | 0.26 | 0.273 | 0.261 | 0.193 | 0.199
